“Also recorded” adds a separate entry of the source.
Experiments:
RAW264.7 cells = assay: Osteoclast differentiation, TRAP assay, RAW264.7; format: cell-based, murine
Protocol: Cell lines—Human metastatic breast cancer cells, MDA-MB-231, were cultured in Dulbecco's Modified Eagle's Medium (DMEM/F12; Invitrogen, Carlsbad, Calif.), supplemented with 2 mM L-glutamine, 1 mM sodium pyruvate, 0.02 mM non-essential amino acids, 5% fetal bovine serum, FBS (Atlanta Biologicals, Norcross, Ga.), without antibiotics or antimycotics (cDME/F12). SUM1315 and SUM159 cells (DiMeo, T. A., et al. (2009) Cancer Res 69, 5364-5373) (Asterand, Detroit, Mich.) were cultured in DMEM/F12 supplemented with […] insulin, 5% FBS (Atlanta Biologicals) and either 10 ng/ml EGF or 1 ng/ml hydrocortisone, without antibiotics or antimycotics. The SUM1315 cells are derived from a metastasis in a patient with infiltrating ductal carcinoma; SUM159 cells were derived from a primary breast tumor with metaplastic ccarcinoma. RAW264.7 (ATCC, TIB 71) cells, a murine pre-osteoclastic line capable of differentiation and mineralization in culture (in presence of RANKL and MCSF), were grown in DMEM with L-glutamine (ATCC, 30-2002) supplemented with 10% FBS. A 2× differentiation medium (DM) was formulated for the RAW 264.7 cells comprising RAW264.7 growth medium supplemented with 20% FBS, RANKL (100 ng/ml) and M-CSF (40 ng/ml) (Matsubara, T., et al. J Bone Miner Res 25, 1068-1076). Conditioned media was harvested from breast cancer cells and mixed in a 1:1 ratio with double strength differentiation medium to assess the effect on osteoclast differentiation. 1×DM was used as control or wherever SHH (R & D Systems, Minneapolis, Minn.) or OPN (R & D Systems) was used alone. The medium on the RAW264.7 cells was replenished every 48 hours. In order to assess the effect of secreted Hh ligands, the neutralizing 5E1 antibody was used (Developmental Studies Hybridoma Bank, at the University of Iowa, Iowa). The amount of 5E1 antibody used for the studies was determined following titration of the antibody with respect to its effects on osteoclast differentiation. Medium was supplemented with 5E1 (2.5 μg/ml) and was changed on alternate days until the end of the experiment. The effect of OPN on osteoclast activity was assessed by transfecting an OPN shRNA-expressing construct on day 6 post-induction of differentiation. Fresh DM was added the following day and cells were allowed to grow for another 12 hours before termination of experiment. GLI1 expression was silenced in the SUM1315 cells using shRNA targeting GLI1 into pSuperior. gfp+neo (Oligoengine, Wash., USA). […]
Osteoclast differentiation and activity assays—Tartarate-resistant acid phosphatase (TRAP) assay was conducted for RAW 264.7 following the manufacturer's protocol (Sigma, St. Louis, Mo.). […] The percentage of area resorbed was calculated using the NIS-Elements BR. […]

OPN [1] = assay: OPN mRNA by qRT-PCR in metastatic melanoma cell lines; format: cell-based, human; conditions: MDA-MB-435
Protocol: This medium was replaced with fresh cyclopamine-containing medium after 12 h. […] RNA was assessed by real-time RT-PCR for OPN transcript levels.
Quantitative RT-PCR (qRT-PCR)-cDNA was generated using High Capacity Reverse Transcriptase Kit (Applied Biosystems, Foster City, Calif.). Real time PCR was performed using a Bio-Rad iQ5 Real-Time Detection system (Bio-Rad). All reactions were done as three independent replicates. All assays were done using the TaqMan Gene Expression Assays from Applied Biosystems. OPN (SPP1: Hs 00959010_m1) transcript levels were normalized to glyceraldehyde-3-phosphate dehydrogenase (Hs 99999905_m1) levels (δCT), which was used to calculate changes in OPN expression (2^−δδCT). […] GLI1 and SHH (Hs 00179843_m1) expressions were also similarly assessed with glyceraldehyde-3-phosphate dehydrogenase as an endogenous control. To analyze the knockdown effectiveness, “scrambled transfectants” of MDA-MB-435 was set as calibrator.

OPN [2] = assay: OPN regulation and GLI1 localisation in osteoblastic cells hFOB and MC3T3-E1; format: cell-based
Protocol: The role of the Hedgehog pathway in regulating the expression of OPN in the two osteoblastic cell lines, hFOB and MC3T3-E1 was assessed.
Quantitative RT-PCR (qRT-PCR)-cDNA was generated using High Capacity Reverse Transcriptase Kit (Applied Biosystems, Foster City, Calif.). Real time PCR was performed using a BioRad iQ5 Real-Time Detection system (Bio-Rad, Hercules, Calif.). All reactions were done in triplicate. OPN transcript levels were normalized to GAPDH levels (dCT) which was used to calculate changes in OPN expression (2-ddCT). […] The primers used included Spp1 (OPN) (Mm 00436767_m1); Bglap (osteocalcin) (Mm 01741771_g1); IBSP (Mm 00492555_m1); PTHrP (Mm 00433057_m1); RANKL (Mm 00441906_m1); GAPDH (Mm 99999915_g1).

| Compound | numbers of TRAP stained multinucleate cells (RAW264.7 cells; DM supplemented with SHH (100 nM) or OPN (100 ng/ml) vs DM alone) | rescue of OPN transcript levels from cyclopamine inhibition (OPN [1]; cyclopamine 20 μM, recombinant SHH 100 nM) | OPN promoter activity (OPN [2]; hFOB and MC3T3) | osteoclast differentiation into TRAP-positive, multinucleate osteoclasts (RAW264.7 cells; DM + cyclopamine 20 μM) | ability of MDA-MB-435 conditioned medium to induce osteoclast differentiation (RAW264.7 cells; tumor cells treated with cyclopamine) | OPN mRNA levels (OPN [1]; MCC012A, MCC012F, cyclopamine 24 h) | OPN transcript levels (OPN [2]; hFOB / pre-osteoblasts, cyclopamine) | GLI1 subcellular localisation (OPN [2]; hFOB, cyclopamine 20 μM, 24 h) |
| --- | --- | --- | --- | --- | --- | --- | --- | --- |
| SHH: recombinant Sonic hedgehog ligand (R & D Systems) | significant (p<0.005) increase | reverse and rescue the inhibitory effects of cyclopamine | stimulated the promoter of OPN; also recorded: upregulation in OPN promoter activity |  |  |  |  |  |
| CC1=C2C[C@H]3[C@@H](CC=C4C[C@@H](O)CC[C@@]43C)[C@@H]2CC[C@]12O[C@@H]1C[C@H](C)CN[C@H]1[C@H]2C [cyclopamine] |  |  |  | significantly (p<0.0001) reduced the ability of DM to elicit differentiation | significant reduction in this ability | decreases the levels of OPN mRNA | decreases OPN mRNA levels; also recorded: inhibited the transcription of OPN; also recorded: reduction in the levels of OPN transcript levels | keeps GLI1 sequestered in the cytosolic compartment |

Source: US9464291B2, “Methods and compositions for the treatment of cancer” (University of South Alabama, priority 2012, dated 2016)
